Several values for one entry are separate records, joined by “and”; a condition that tells them apart may be missing. Identical values can stand only once.
Tests used:
[1] = target: T1, RPTPμ (Receptor Protein Tyrosine Phosphatase Mu) (Homo sapiens, UniProt P28827); assay: PhosphataseProfiler screen: RPTPμ; assay type: biochemical; settings: replicates
T1 construct: purchased Eurofins Pharma Discovery Services UK
Experimental: Compound DJ001 was evaluated in a PhosphataseProfiler™ screen at 10 μM and 1 μM (2.7 μg/mL and 0.27 μg/mL) concentrations at Eurofins Pharma Discovery Services UK (Study number UK022-0004033) against a panel of 21 Phosphatases. In each experiment, the respective reference antagonist/agonist was tested directly with DJ001 and the data were compared with historical values determined at Eurofins. DJ001 compound inhibition was calculated as percentage inhibition of the enzymatic activity compared with control.

BM KSL cells [2] = assay: CFC assay after lentiviral shRac1 or shBcl2l1 silencing and 300 cGy; assay type: cell-based, mouse; settings: for Figure 3i: BFU-E / Figure 3i: CFU-GM / Figure 3i: GEMM: 300 cGy, replicates
Experimental: Rac1 CDS-targeting- and Bcl2l1 CDS-targeting shRNA in lentiviral plasmid (TRCN0000310888 and TRCN0000004685) and control shRNA (SHC216V) were purchased from Sigma Aldrich. […]. Viral particles were collected after 24 h and 48 h. […] Infected cells were collected the next day and irradiated with 300 cGy followed by treatment with or without 1 μg/mL DJ001, prior to CFC assay.
CFC assays (colony-forming unit-granulocyte monocyte), burst-forming unit-erythroid, and CFU-GEMM were performed using MethoCult GF M3434 (Stemcell Technologies)[6]. For all in vitro assays, BM CD34^−KSL cells, KSL cells, and Lin^− cells were cultured in TSF media (IMDM, 10% FBS, 1% pen-strep, 20 ng/mL recombinant mouse TPO, 125 ng/mL recombinant mouse SCF, 50 ng/mL recombinant mouse Flt3 ligand). Recombinant mouse SCF, Flt3 ligand, and TPO were purchased from R&D Systems. For competitive repopulation assays, BM cells were isolated from donor 10–12-week-old female CD45.2^+ mice. Recipient 10-week-old female CD45.1^+ B6.SJL mice were irradiated with 950 cGy TBI using a Cs137 irradiator and donor BM cells were administered via tail vein injection along with a competing dose of 1 × 10^5 non-irradiated host BM cells. Multilineage donor hematopoietic cell engraftment was measured in the PB by flow cytometry.

BM KSL cells [3] = assay: Cytokine analysis in vitro (BM KSL cell culture supernatants); assay type: cell-based, mouse; parameters: PTN: unit not given beside the values; IL-5 / IL-6 / IL-9 / IL-10 / IL-12(p40) / IL-12(p70) / IL-13 / IL-17 / IP-10 / CXCL12 / EGF / DKK / G-CSF / Eotaxin / GM-CSF / KC / MCP-1 / MIP-1a / M-CSF / MIP-2 / MIG / RANTES / VEGF / TNF-a / IFN-g / IL-1a / IL-1b / IL-2 / IL-4 / IL-3: unit not given here; settings: for IFN-g / IL-1a / IL-1b / IL-2 / IL-3 / IL-4 / IL-5 / IL-6 / IL-9 / IL-10 / IL-12(p40) / IL-12(p70) / IL-13 / IL-17 / IP-10: Supplementary Figure 6a; for CXCL12 / DKK / EGF / Eotaxin / G-CSF / GM-CSF / KC / M-CSF / MCP-1 / MIG / MIP-1a / MIP-2 / PTN / RANTES / TNF-a / VEGF: Supplementary Figure 6b
Experimental: For in vitro cytokine measurements, 3.5 × 10^4 BM KSL cells were irradiated with 300 cGy and cultured in TSF media with and without 1 μg/mL DJ001. Non-irradiated KSL cells were cultured in TSF media with and without 1 μg/mL DJ001. At 12 h of culture, culture supernatants were collected for analysis. For in vivo cytokine measurements, adult C57BL/6 mice were irradiated with 750 cGy TBI and then treated with 5 mg/kg of DJ001 or vehicle, subcutaneously, from day + 1 to day + 5. Non-irradiated mice received the identical regimen of 5 mg/kg DJ001 or vehicle for 5 days. Mice were killed and BM cells were collected into IMDM. Cells were pelleted and the BM supernatant was collected and sent to the UCLA Immune Assessment Core for cytokine analysis. All samples were tested on a mouse 32-plex Cytokine/Chemokine panel platform from EMD Milipore using Luminex’s xMAP® immunoassay technology (Luminex, Inc.). In addition, the following cytokine levels were assessed by solid-phase ELISA assay according to the manufacturer’s description: CXCL12 (R&D Systems), SCF (R&D Systems), Thrombopoietin (TPO) (R&D Systems), PTN (Biomatik), DKK1 (R&D Systems), and EGF (R&D Systems).

BM KSL cells [4] = assay: Cell cycle analysis (Ki67/7AAD) of BM KSL cells; assay type: cell-based, mouse; settings: non-irradiated BM KSL cells, 36 hours

T1 sequence (P28827 21-1452, species assumed): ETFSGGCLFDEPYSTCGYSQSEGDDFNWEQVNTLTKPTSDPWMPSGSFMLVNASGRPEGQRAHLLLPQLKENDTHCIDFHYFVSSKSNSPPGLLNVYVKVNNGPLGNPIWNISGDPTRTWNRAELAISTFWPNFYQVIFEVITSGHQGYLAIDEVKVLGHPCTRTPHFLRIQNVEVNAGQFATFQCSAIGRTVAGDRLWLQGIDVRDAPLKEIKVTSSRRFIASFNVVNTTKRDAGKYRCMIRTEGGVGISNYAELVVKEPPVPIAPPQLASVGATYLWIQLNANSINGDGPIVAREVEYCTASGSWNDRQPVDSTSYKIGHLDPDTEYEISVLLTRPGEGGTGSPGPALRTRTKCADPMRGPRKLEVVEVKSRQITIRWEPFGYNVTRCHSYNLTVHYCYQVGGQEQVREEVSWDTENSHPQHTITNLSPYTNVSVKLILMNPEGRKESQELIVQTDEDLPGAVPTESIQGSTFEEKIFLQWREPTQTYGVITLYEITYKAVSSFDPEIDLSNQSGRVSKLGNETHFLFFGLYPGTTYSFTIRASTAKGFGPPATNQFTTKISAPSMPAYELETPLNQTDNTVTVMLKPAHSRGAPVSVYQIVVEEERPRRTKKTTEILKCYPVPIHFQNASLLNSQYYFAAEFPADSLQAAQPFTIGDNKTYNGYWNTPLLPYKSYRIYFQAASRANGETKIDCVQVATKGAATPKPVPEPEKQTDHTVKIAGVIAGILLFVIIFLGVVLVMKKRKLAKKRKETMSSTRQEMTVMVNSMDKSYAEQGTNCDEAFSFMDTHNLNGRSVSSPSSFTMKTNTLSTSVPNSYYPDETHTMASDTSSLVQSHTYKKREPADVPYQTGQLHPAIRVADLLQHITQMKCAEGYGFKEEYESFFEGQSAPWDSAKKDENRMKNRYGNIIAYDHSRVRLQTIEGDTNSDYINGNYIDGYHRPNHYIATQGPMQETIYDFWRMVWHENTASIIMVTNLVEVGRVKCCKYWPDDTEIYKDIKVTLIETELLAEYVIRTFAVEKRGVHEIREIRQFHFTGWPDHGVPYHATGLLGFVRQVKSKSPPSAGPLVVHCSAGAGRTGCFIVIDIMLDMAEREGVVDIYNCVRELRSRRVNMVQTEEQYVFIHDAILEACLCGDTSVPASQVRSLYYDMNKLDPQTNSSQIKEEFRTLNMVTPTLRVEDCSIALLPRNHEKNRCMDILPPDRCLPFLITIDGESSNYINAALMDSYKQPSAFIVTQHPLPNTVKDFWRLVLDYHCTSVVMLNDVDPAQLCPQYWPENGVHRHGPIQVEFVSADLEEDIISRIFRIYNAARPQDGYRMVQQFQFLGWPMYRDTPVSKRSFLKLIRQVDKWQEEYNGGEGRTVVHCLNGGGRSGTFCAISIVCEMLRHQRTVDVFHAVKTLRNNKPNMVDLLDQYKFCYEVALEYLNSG

Compound: O=C(/C=C\Nc1cccc([N+](=O)[O-])c1)c1ccccc1 [DJ001, (Z)-3-((3-nitrophenyl)amino)-1-phenylprop-2-en-1-one]
- Supplementary Figure 1: RPTP activity ([1]; 2.7 μg/mL DJ001): 83 and 98 and 86
- Supplementary Figure 1: RPTP activity ([1]; 0.27 g/mL DJ001): 92 and 99 and 95
- DJ001-mediated recovery of hematopoietic progenitor cells with silencing of Rac1 or Bcl2l1 (BM KSL cells [2]; BM KSL cells, 48 h following 300 cGy): blocked DJ001-mediated recovery of hematopoietic progenitor cells
- Figure 3i: BFU-E (BM KSL cells [2]; shBcl-xL): 1
- Figure 3i: CFU-GM (BM KSL cells [2]; shBcl-xL): 9 and 11 and 10
- Figure 3i: GEMM (BM KSL cells [2]; shBcl-xL): 2 and 1 (2×)
- Figure 3i: BFU-E (BM KSL cells [2]; shCtrl): 2 and 3 (4×) and 4 (2×) and 5 (2×)
- Figure 3i: CFU-GM (BM KSL cells [2]; shCtrl): 26 (3×) and 30 and 29 (2×) and 20 and 31 and 28
- Figure 3i: GEMM (BM KSL cells [2]; shCtrl): 5 (3×) and 13 and 8 (2×) and 7 and 10 and 9
- Figure 3i: BFU-E (BM KSL cells [2]; shRac1): 1 (2×) and 0
- Figure 3i: CFU-GM (BM KSL cells [2]; shRac1): 12 and 10 (2×)
- Figure 3i: GEMM (BM KSL cells [2]; shRac1): 2 and 0 and 3
- IFN-g (BM KSL cells [3]; 300cGy): 0.77
- IL-1a (BM KSL cells [3]; 300cGy): 2.07 and 2.11
- IL-1b (BM KSL cells [3]; 300cGy): 1.39
- IL-2 (BM KSL cells [3]; 300cGy): 2.9
- IL-3 (BM KSL cells [3]; 300cGy): 1
- IL-4 (BM KSL cells [3]; 300cGy): 0.44
- IL-5 (BM KSL cells [3]; 300cGy): 2.67
- IL-6 (BM KSL cells [3]; 300cGy): 0.77 and 1.04
- IL-9 (BM KSL cells [3]; 300cGy): 36.91
- IL-10 (BM KSL cells [3]; 300cGy): 2.29
- IL-12(p40) (BM KSL cells [3]; 300cGy): 1.77 and 1.44 and 2.31
- IL-12(p70) (BM KSL cells [3]; 300cGy): 3.42
- IL-13 (BM KSL cells [3]; 300cGy): 9.36
- IL-17 (BM KSL cells [3]; 300cGy): 1.92
- IP-10 (BM KSL cells [3]; 300cGy): 2.77
- CXCL12 (BM KSL cells [3]; 300cGy): 0
- DKK (BM KSL cells [3]; 300cGy): 0
- EGF (BM KSL cells [3]; 300cGy): 0
- Eotaxin (BM KSL cells [3]; 300cGy): 2.69
- G-CSF (BM KSL cells [3]; 300cGy): 0.01
- GM-CSF (BM KSL cells [3]; 300cGy): 5.03
- KC (BM KSL cells [3]; 300cGy): 1.04
- M-CSF (BM KSL cells [3]; 300cGy): 1.85 and 2.24
- MCP-1 (BM KSL cells [3]; 300cGy): 4.52
- MIG (BM KSL cells [3]; 300cGy): 3.11
- MIP-1a (BM KSL cells [3]; 300cGy): 5.42 and 8.81
- MIP-2 (BM KSL cells [3]; 300cGy): 16
- PTN (BM KSL cells [3]; 300cGy): 10.6601 and 9.687 and 10.9496
- RANTES (BM KSL cells [3]; 300cGy): 3.97
- TNF-a (BM KSL cells [3]; 300cGy): 4.73
- VEGF (BM KSL cells [3]; 300cGy): 1.18
- LIX levels following irradiation (BM KSL cells [3]; BM KSL cells, 12 h after 300 cGy, 1 μg/mL DJ001): decreased LIX levels
- other cytokines in vitro (BM KSL cells [3]; BM KSL cells, 12 h culture, 1 μg/mL DJ001): no effects on any other cytokines
- IFN-g (BM KSL cells [3]; NI (non-irradiated)): 0.77
- IL-1a (BM KSL cells [3]; NI (non-irradiated)): 2.07
- IL-1b (BM KSL cells [3]; NI (non-irradiated)): 1.39
- IL-2 (BM KSL cells [3]; NI (non-irradiated)): 2.9
- IL-3 (BM KSL cells [3]; NI (non-irradiated)): 1
- IL-4 (BM KSL cells [3]; NI (non-irradiated)): 0.44
- IL-5 (BM KSL cells [3]; NI (non-irradiated)): 2.67
- IL-6 (BM KSL cells [3]; NI (non-irradiated)): 0.77 and 1.04
- IL-9 (BM KSL cells [3]; NI (non-irradiated)): 36.91
- IL-10 (BM KSL cells [3]; NI (non-irradiated)): 2.29
- IL-12(p40) (BM KSL cells [3]; NI (non-irradiated)): 1.13 and 2.12 and 1.6
- IL-12(p70) (BM KSL cells [3]; NI (non-irradiated)): 3.42
- IL-13 (BM KSL cells [3]; NI (non-irradiated)): 9.36
- IL-17 (BM KSL cells [3]; NI (non-irradiated)): 1.92
- IP-10 (BM KSL cells [3]; NI (non-irradiated)): 2.77
- CXCL12 (BM KSL cells [3]; NI (non-irradiated)): 0
- DKK (BM KSL cells [3]; NI (non-irradiated)): 0
- EGF (BM KSL cells [3]; NI (non-irradiated)): 0
- Eotaxin (BM KSL cells [3]; NI (non-irradiated)): 2.69
- G-CSF (BM KSL cells [3]; NI (non-irradiated)): 0.01
- GM-CSF (BM KSL cells [3]; NI (non-irradiated)): 5.03
- KC (BM KSL cells [3]; NI (non-irradiated)): 1.04
- M-CSF (BM KSL cells [3]; NI (non-irradiated)): 1.85 and 2.71
- MCP-1 (BM KSL cells [3]; NI (non-irradiated)): 4.52
- MIG (BM KSL cells [3]; NI (non-irradiated)): 3.11
- MIP-1a (BM KSL cells [3]; NI (non-irradiated)): 5.42 and 8.81
- MIP-2 (BM KSL cells [3]; NI (non-irradiated)): 16
- PTN (BM KSL cells [3]; NI (non-irradiated)): 11.0625 and 10.3876 and 11.8896
- RANTES (BM KSL cells [3]; NI (non-irradiated)): 3.97
- TNF-a (BM KSL cells [3]; NI (non-irradiated)): 4.73
- VEGF (BM KSL cells [3]; NI (non-irradiated)): 1.18
- cell cycle status (BM KSL cells [4]): did not alter the cell cycle status

— PMC6694155, “PTPσ inhibitors promote hematopoietic stem cell regeneration” (Nature Communications, 2019)
